One may read the IC50 as the concentration that gives 50% inhibition. A low value points to higher potency.

From US20240368181A1, “QUINOXALINE DERIVATIVES AND USES THEREOF” (Black Diamond Therapeutics, Inc., priority 2021, published 2024) come the findings set out here.

What all share (format): cell-based
In assay [1] the test system is SNU-16 (FGFR2-amplification) cells. The assay is described as follows: cell proliferation assay (CellTiterGlo), SNU-16 cells. The following applies: Homo sapiens, 72 hours. An excerpt: (§1) In some embodiments, the biological assay assess the ability of the compounds to inhibit cell proliferation.
(§2) In some embodiments, cells (e.g., SNU-16 (FGFR2-amplification) cells) may be suspended and dispensed in plates. In some embodiments, cells (e.g., UM-UC-14 (FGFR3-S249C) cells) may be suspended and dispensed in plates. In some embodiments, cells (e.g., DMS-114 (FGFR1 overexpression) cells) may by suspended and dispensed in plates. In some embodiments, cells (e.g., RT-112 (FGFR3-Tacc3 fusion) cells) may be suspended and dispensed in plates. In some embodiments, to determine the effect of the compounds of the present disclosure on cell proliferation, cells (e.g., SNU-16, UM-UC-14, DMS-114 and […] cells) may be incubated in the presence of vehicle control (e.g., DMSO) or a compound of the present disclosure at varying concentrations and the inhibition of cell growth may be determined by luminescent quantification (e.g., of intracellular ATP content using CellTiterGlo), according to the manufacturers protocol. In some embodiments, to determine the IC50 values, the vehicle-treated cells were normalized as viable cells and the growth was analyzed using a software (e.g., the CDD Vault software (Collaborative Drug Discovery, Burlingame, CA)).
A general note: ATP-based viability assays read luminescence as a measure of living cells.

In assay [2] the test system is UM-UC-14 (FGFR3-S249C) cells. The experiment in a line: cell proliferation assay (CellTiterGlo), UM-UC-14 cells. The following applies: UMUC14, 72 h.
Excerpt: as §1, §2

The test system of assay [3] is DMS-114 (FGFR1 overexpression) cells. The experiment in a line: cell proliferation assay (CellTiterGlo), DMS-114 cells. Particulars: Homo sapiens, DMS-114, 72 h.
Excerpt: as §1, §2

For assay [4], the system named is RT-112 (FGFR3-Tacc3 fusion) cells. The experiment in a line: cell proliferation assay (CellTiterGlo), RT-112 cells. Particulars: Homo sapiens, RT-112, RT112 cells, 72 hours.
Excerpt: as §1, §2

On to `Cc1nc2ccc(Oc3ccc4ncc(-c5cnn(CC6CN(CC(=O)N7CC(O)C7)C6)c5)nc4c3Cl)cc2[nH]1` [Compound 314], for which the IC50 in assay [1] lay within 20 to 100 nM; in assay [2] it was 100 to 400 nM; in assay [3], 100 to 400 nM; in assay [4] it was 20 to 100 nM.

Consider `Cc1nc2ccc(Oc3ccc4ncc(-c5cnn(CCN6CC(O)C6)c5)nc4c3Cl)cc2[nH]1` [Compound 198], for which the half-inhibitory concentration (IC50) in assay [1] was 100 to 400 nM; in assay [2], 100 to 400 nM; in assay [3], no less than 400 nM; in assay [4], 20 to 100 nM.

As to `Cc1nc2ccc(Oc3ccc4ncc(-c5cnn(C6CCN(CC(N)=O)CC6)c5)nc4c3Cl)cc2[nH]1` [Compound 330], the IC50 in assay [1] was less than 20 nM; in assay [2], 20 to 100 nM; in assay [3], no less than 400 nM; in assay [4], less than 20 nM.

On to `Cc1nc2ccc(Oc3ccc4ncc(-c5cnn(CC6CCNCC6(F)F)c5)nc4c3Cl)cc2[nH]1` (centres unmarked) [Compound 386], for which the half-maximal inhibitory concentration (IC50) is 20 to 100 nM in assay [1], 20 to 100 nM in assay [2], no less than 400 nM in assay [3] and 20 to 100 nM in assay [4].

On to `C=C1COC(Cn2cc(-c3cnc4ccc(Oc5ccc6nc(C)[nH]c6c5)c(Cl)c4n3)cn2)OC1` [Compound 298], for which the IC50 in assay [1] was 100 to 400 nM; in assay [2] it was 20 to 100 nM; in assay [3] it was no less than 400 nM; in assay [4], 20 to 100 nM.

In the case of `CNC(=O)CN1CCC(n2cc(-c3cnc4ccc(Oc5ccc6nc(C)[nH]c6c5)c(Cl)c4n3)cn2)CC1` [Compound 322], the IC50 in assay [1] was 20 to 100 nM; in assay [2], 20 to 100 nM; in assay [3], no less than 400 nM; in assay [4] it was less than 20 nM.

Regarding `Cc1nc2ccc(Oc3ccc4ncc(-c5cnn(C6CC(F)(F)C6)c5)nc4c3Cl)cc2[nH]1` [Compound 205], the IC50 in assay [1] was 100 to 400 nM; in assay [2], 100 to 400 nM; in assay [3], no less than 400 nM; in assay [4] it was 100 to 400 nM.

Regarding `CCOC(Cn1cc(-c2cnc3ccc(Oc4ccc5nc(C)[nH]c5c4)c(Cl)c3n2)cn1)OCC` [Compound 388], the IC50 in assay [1] is 100 to 400 nM; in assay [2] it was 100 to 400 nM; in assay [3], no less than 400 nM; in assay [4] it was 100 to 400 nM.

With `Cc1nc2ccc(Oc3ccc4ncc(-c5cnn(C6CCN(S(C)(=N)=O)CC6)c5)nc4c3Cl)cc2[nH]1` (centres unmarked) [Compound 82], the IC50 in assay [1] is less than 20 nM; in assay [2] it was 20 to 100 nM; in assay [3], 100 to 400 nM; in assay [4], 20 to 100 nM.

As for `Cc1nc2ccc(Oc3ccc4ncc(-c5cnn([C@H](C)CO)c5)nc4c3Cl)c(F)c2[nH]1` [Compound 107], the IC50 in assay [1] was less than 20 nM; in assay [2], less than 20 nM; in assay [3], 100 to 400 nM; in assay [4] it was less than 20 nM.

For `Cc1nc2ccc(Oc3ccc4ncc(-c5cnn(CCN6CCC(O)C6)c5)nc4c3Cl)cc2[nH]1` (centres unmarked) [Compound 267], the IC50 in assay [1] is 20 to 100 nM; in assay [2] it was 20 to 100 nM; in assay [3] it was no less than 400 nM; in assay [4], 20 to 100 nM.

As to `Cc1nc2ccc(Oc3ccc4ncc(-c5cnn(CC6CCC(F)(F)CC6)c5)nc4c3Cl)c(F)c2[nH]1` [Compound 152], the IC50 in assay [1] was 20 to 100 nM; in assay [2], 20 to 100 nM; in assay [3], 100 to 400 nM; in assay [4] it was 20 to 100 nM.

Regarding `Cc1nc2ccc(Oc3ccc4ncc(-c5cnn(CC6(O)CCC6)c5)nc4c3Cl)c(F)c2[nH]1` [Compound 140], the IC50 in assay [1] is 20 to 100 nM; in assay [2], 20 to 100 nM; in assay [3], no less than 400 nM; in assay [4], 20 to 100 nM.

Turning to `Cc1nc2ccc(Oc3ccc4ncc(-c5cnn(CC6CCC(F)(F)C6)c5)nc4c3Cl)cc2[nH]1` (centres unmarked) [Compound 286], the IC50 in assay [1] was 100 to 400 nM; in assay [2], 20 to 100 nM; in assay [3] it was no less than 400 nM; in assay [4], 20 to 100 nM.

Consider `Cc1nc2ccc(Oc3ccc4ncc(-c5cnn(CC6CC(F)(F)C6)c5)nc4c3Cl)c(Cl)c2[nH]1` [Compound 136], for which the IC50 in assay [1] and in assay [4] was 100 to 400 nM throughout.

In the case of `Cc1nc2ccc(Oc3ccc4ncc(-c5cnn(CC(=O)N6CCC(F)(F)C6)c5)nc4c3Cl)cc2[nH]1` [Compound 287], the IC50 in assay [1] is 20 to 100 nM; in assay [2], 20 to 100 nM; in assay [3], no less than 400 nM; in assay [4], 20 to 100 nM.

Regarding `Cc1nc2ccc(Oc3ccc4ncc(-c5cnn(CC(C)(C)O)c5)nc4c3Cl)c(F)c2[nH]1` [Compound 131], the IC50 is less than 20 nM in assay [1], less than 20 nM in assay [2], 100 to 400 nM in assay [3] and less than 20 nM in assay [4].

`Cc1nc2ccc(Oc3ccc4ncc(-c5cnn(C[C@H](C)O)c5)nc4c3Cl)cc2[nH]1` [Compound 119]: the IC50 in assay [1] was 20 to 100 nM; in assay [2] it was less than 20 nM; in assay [3], 100 to 400 nM; in assay [4], 20 to 100 nM.

For `Cc1nc2ccc(Oc3ccc4ncc(-c5cnn(CC6COCCN6C)c5)nc4c3Cl)cc2[nH]1` (centres unmarked) [Compound 245], the IC50 in assay [1] was 20 to 100 nM; in assay [2], 20 to 100 nM; in assay [3], no less than 400 nM; in assay [4] it was 20 to 100 nM.

As for `Cc1nc2ccc(Oc3ccc4ncc(-c5cnn(C6CCC(F)(F)CC6)c5)nc4c3Cl)nc2[nH]1` [Compound 177], the half-inhibitory concentration (IC50) in assay [1], in assay [2] and in assay [3] was no less than 400 nM each time.

Take `Cc1nc2ccc(Oc3ccc4ncc(-c5cnn(C6CCN(C)C7(CC7)C6)c5)nc4c3Cl)c(F)c2[nH]1` (centres unmarked) [Compound 135]: the IC50 in assay [1] and in assay [4] was less than 20 nM each time.

As to `Cc1nc2ccc(Oc3ccc4ncc(-c5cnn(CC6(O)COC6)c5)nc4c3Cl)c(F)c2[nH]1` [Compound 138], the concentration for half-maximal inhibition (IC50) in assay [1] and in assay [4] was no less than 400 nM each time.

In the case of `Cc1nc2ccc(Oc3ccc4ncc(-c5cnn(C(C)C6CC(F)(F)C6)c5)nc4c3Cl)cc2[nH]1` (centres unmarked) [Compound 182], the IC50 is 20 to 100 nM in assay [1], 20 to 100 nM in assay [2] and no less than 400 nM in assay [3].

For `Cc1nc2ccc(Oc3ccc4ncc(-c5cnn(CC6CC(F)(F)C6)c5)nc4c3-n3ccnc3)c(F)c2[nH]1` [Compound 96], the values for the IC50 in assay [1], in assay [3] and in assay [4] were 20 to 100 nM, 100 to 400 nM and 20 to 100 nM, respectively.

In the case of `Cc1nc2ccc(Oc3ccc4ncc(-c5cnn(C[C@H]6C[C@@](C)(O)C6)c5)nc4c3Cl)cc2[nH]1` [Compound 180], the results for the IC50 in assay [1], in assay [2] and in assay [3] were 20 to 100 nM, 20 to 100 nM and no less than 400 nM, respectively.

Take `Cc1nc2ccc(Oc3ccc4ncc(-c5cnn(C[C@H]6C[C@](C)(O)C6)c5)nc4c3Cl)cc2[nH]1` [Compound 181]: the IC50 in assay [1] is less than 20 nM; in assay [2], 20 to 100 nM; in assay [3], no less than 400 nM.

For the compound `Cc1nc2ccc(Oc3ccc4ncc(-c5cnn([C@H]6C[C@H](C(F)(F)F)C6)c5)nc4c3Cl)cc2[nH]1` [Compound 178], the IC50 in assay [1] is 20 to 100 nM; in assay [2] it was no less than 400 nM; in assay [3], no less than 400 nM.

As to `Cc1nc2ccc(Oc3ccc4ncc(-c5cnn(C6CCNC7(CC7)C6)c5)nc4c3Cl)cc2[nH]1` (centres unmarked) [Compound 176], the IC50 was 100 to 400 nM in assay [1], less than 20 nM in assay [2] and 100 to 400 nM in assay [3].

Turning to `Cc1nc2ccc(Oc3ccc4ncc(-c5cnn(CC6CC(F)(F)C6)c5)nc4c3-n3c(C)ccc3C)cc2[nH]1` [Compound 133], the values for the IC50 in assay [1] and in assay [4] were no less than 400 nM and 100 to 400 nM, respectively.

`Cc1nc2ccc(Oc3ccc4ncc(-c5cnn(C6CCN(C(=O)N(C)C)CC6)c5)nc4c3Cl)cc2[nH]1` [Compound 261]: the values for the IC50 in assay [1], in assay [2] and in assay [3] were less than 20 nM, less than 20 nM and 20 to 100 nM, respectively.

With `Cc1nc2ccc(Oc3ccc4ncc(-c5cnn(C[C@@H](C)O)c5)nc4c3Cl)cc2[nH]1` [Compound 132], the IC50 in assay [1] and in assay [4] was 20 to 100 nM throughout.

In the case of `Cc1nc2ccc(Oc3ccc4ncc(-c5cnn([C@H]6C[C@](C)(O)C6)c5)nc4c3Cl)cc2[nH]1` [Compound 175], the IC50 in assay [1] is less than 20 nM; in assay [2] it was 20 to 100 nM; in assay [3], 100 to 400 nM.

Take `Cc1nc2ccc(Oc3ccc4ncc(-c5cnn(CC(=O)N6CCC(F)(F)C6)c5)nc4c3Cl)c(F)c2[nH]1` [Compound 174]: the IC50 in assay [1] is less than 20 nM; in assay [2] it was less than 20 nM; in assay [3], 100 to 400 nM.

Take `Cc1nc2ccc(Oc3ccc4ncc(-c5cnn(C(C)(C)CO)c5)nc4c3Cl)c(F)c2[nH]1` [Compound 142]: the IC50 in assay [2] was less than 20 nM; in assay [3], 100 to 400 nM; in assay [4], less than 20 nM.

Consider `Cc1nc2ccc(Oc3ccc4ncc(-c5cnn(CC6CC(F)(F)C6)c5)nc4c3C3CCOC3)cc2[nH]1` (centres unmarked) [Compound 134], for which the IC50 in assay [1] and in assay [4] was 20 to 100 nM each time.

With `Cc1nc2ccc(Oc3ccc4ncc(-c5cnn(CC6(O)CC(O)C6)c5)nc4c3Cl)c(F)c2[nH]1` (centres unmarked) [Compound 102], the IC50 in assay [2] was less than 20 nM; in assay [3] it was 20 to 100 nM; in assay [4], less than 20 nM.

For the compound `Cc1nc2ccc(Oc3ccc4ncc(-c5cnn(CC6(O)CC6)c5)nc4c3F)c(Cl)c2[nH]1` [Compound 137], the IC50 in assay [1] and in assay [4] was 100 to 400 nM throughout.
